The NIST ThermoML archive (doi:10.1016/j.jct.2009.01.008)

How the values were obtained:
[1] = xn = mol fraction of the nth substance listed; details: 101 kPa, Liquid, Linear variable-path acoustic interferometer
[2] = refractive index (Na D-line) (dimensionless); details: 298.15 K; 101.33 kPa; Liquid
[3] = 101 kPa, Liquid, Linear variable-path acoustic interferometer

COC(C)(C)C [2-methoxy-2-methylpropane] + CC(C)CC(C)(C)C
speed of sound [m/s], [1]
Details	298.15 K	308.15 K	318.15 K	328.15 K
x1 = 0.05551	1079.2	1037.5	–	–
x1 = 0.08857	1077.1	–	993.7	952.7
x1 = 0.1305	1074.8	1032.8	991.2	–
x1 = 0.1971	1071	1028.7	986.9	945.5
x1 = 0.2599	1067.4	1024.9	983	941.5
x1 = 0.3284	1063.8	1021	978.9	–
x1 = 0.3315	–	–	–	936.4
x1 = 0.4078	1059.5	1016.4	973.8	–
x1 = 0.4756	1056.1	1012.7	–	–
x1 = 0.5629	1052	1008.2	964.9	922.2
x1 = 0.6184	1049.5	–	–	–
x1 = 0.6831	1046.7	1002.5	958.7	915.2
x1 = 0.7456	1044.1	995.5	955.6	–
x1 = 0.7644	1043.4	–	–	–
x1 = 0.8143	1041.7	–	–	–
x1 = 0.8155	1041.5	996.6	952.4	–
x1 = 0.8675	1039.8	994.7	950	–
x1 = 0.9376	1037.8	992.5	947.4	–
x1 = 1	1036.4	990.8	945.3	–

COC(C)(C)C [2-methoxy-2-methylpropane] + Cc1ccccc1
speed of sound [m/s], [1]
Details	298.15 K	308.15 K	318.15 K	328.15 K
x1 = 0.1021	1277.4	1234.5	1192	1149.9
x1 = 0.2035	1250	1206.7	1163.9	1121.6
x1 = 0.2591	1234.8	1191.3	1148.5	1106.1
x1 = 0.3321	1215.2	1171.6	1128.4	1086.2
x1 = 0.4008	1196.7	1152.9	1109.5	1066.9
x1 = 0.4665	–	–	–	1049.4
x1 = 0.5323	–	–	–	1030.2
x1 = 0.5894	1145.8	1101.5	1057.6	–
x1 = 0.664	1125.8	1081.2	1037	–
x1 = 0.7257	–	–	1020.4	976.5
x1 = 0.7956	–	1045.7	1001	958.4
x1 = 0.8643	1072.3	1027.1	982.4	–
x1 = 0.9025	1062.2	1016.8	971.6	–
x1 = 1	1036.4	990.8	945.3	–

Cc1ccccc1 [toluene]
Details	refractive index
[2]	1.4941

[3]
Details	speed of sound [m/s]
298.15 K	1305.4
308.15 K	1262.6
318.15 K	1220.3
328.15 K	1178.6

Cc1ccccc1 [toluene] + CC(C)CC(C)(C)C
[1], x1 = 1
Details	speed of sound [m/s]
298.15 K	1305.4
308.15 K	1262.6
318.15 K	1220.3
328.15 K	1178.6

Cc1ccccc1 [toluene] + COC(C)(C)C
[1], x2 = 0
Details	speed of sound [m/s]
298.15 K	1305.4
308.15 K	1262.6
318.15 K	1220.3
328.15 K	1178.6
